Results as given in PubChem BioAssay (NCI).
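Interpolation was linear, between the two tested concentrations surrounding the appropriate level; five concentrations were tested over 48 hours in 96-well plates. GI50: concentration for 50% inhibition of growth. TGI denotes the concentration required for complete inhibition of growth.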

How the values were obtained:
Experiment in all cases: growth of human tumour cells (NCI), 48 h
HCT-116 colon = system: HCT-116 colon
HL-60(TB) leukemia = system: HL-60(TB) leukemia
KM12 colon = system: KM12 colon
MDA-MB-435 = system: MDA-MB-435
MOLT-4 leukemia = system: MOLT-4 leukemia
OVCAR-3 ovarian = system: OVCAR-3 ovarian
SF-295 CNS = system: SF-295 CNS
SNB-19 CNS = system: SNB-19 CNS
SR leukemia = system: SR leukemia
OVCAR-4 ovarian = system: OVCAR-4 ovarian

Structure (SMILES): Oc1ccc(C(=C(Br)c2ccccc2)c2ccc(O)cc2)cc1
- TGI (HCT-116 colon): 15.9 µM
- TGI (HL-60(TB) leukemia): > 100 µM
- TGI (KM12 colon): 13.5 µM
- TGI (MDA-MB-435): 3.45 µM
- TGI (MOLT-4 leukemia): 40.5 µM
- TGI (OVCAR-3 ovarian): 8.99 µM
- TGI (SF-295 CNS): 25.6 µM
- TGI (SNB-19 CNS): 17.1 µM

Structure (SMILES): O=C1c2cc3c(cc2-c2c1c1ccc(Cl)cc1c(=O)n2C[C@H](O)CO)OCO3
- GI50 (HL-60(TB) leukemia): 0.0331 µM
- TGI (HL-60(TB) leukemia): 3.1 µM
- GI50 (KM12 colon): 0.113 µM
- TGI (KM12 colon): 0.618 µM
- GI50 (MDA-MB-435): 0.0691 µM
- TGI (MDA-MB-435): 0.271 µM
- GI50 (MOLT-4 leukemia): < 0.01 µM
- TGI (MOLT-4 leukemia): 12.4 µM
- GI50 (OVCAR-3 ovarian): 0.0615 µM
- TGI (OVCAR-3 ovarian): 0.316 µM
- GI50 (SF-295 CNS): < 0.01 µM
- TGI (SF-295 CNS): 0.341 µM
- GI50 (SR leukemia): < 0.01 µM
- TGI (SR leukemia): 12.7 µM

Structure (SMILES): COC(=O)c1cc2c(cc1Cl)Sc1nnc(Nc3ccccc3)n1S2(=O)=O
- TGI (HCT-116 colon): 14.7 µM
- TGI (HL-60(TB) leukemia): 7.62 µM
- TGI (KM12 colon): 8.11 µM
- TGI (MDA-MB-435): 22.7 µM
- TGI (MOLT-4 leukemia): 6.34 µM
- TGI (OVCAR-3 ovarian): 3.36 µM
- TGI (OVCAR-4 ovarian): 8.97 µM
- TGI (SF-295 CNS): 12.7 µM
- TGI (SNB-19 CNS): 7.98 µM
- TGI (SR leukemia): 5.36 µM

Structure (SMILES): C=C(C#N)C(=O)OCC(CC)CC.C=C(C#N)C(=O)OCC(CC)CC.CS(C)=O.CS(C)=O.Nc1c(N=Nc2ccc(-c3ccc(N=Nc4cc(S(=O)(=O)[O-])c5ccccc5c4N)cc3)cc2)cc(S(=O)(=O)[O-])c2ccccc12.[Pt+2]
- GI50 (HCT-116 colon): > 65.2 µM
- TGI (HCT-116 colon): > 100 µM
- GI50 (HL-60(TB) leukemia): 15.8 µM
- TGI (HL-60(TB) leukemia): 23.6 µM
- GI50 (KM12 colon): 46.6 µM
- TGI (KM12 colon): > 100 µM
- GI50 (MOLT-4 leukemia): 27.1 µM
- TGI (MOLT-4 leukemia): > 91.3 µM
- GI50 (OVCAR-3 ovarian): 25.9 µM
- TGI (OVCAR-3 ovarian): > 58 µM
- GI50 (OVCAR-4 ovarian): 33.7 µM
- TGI (OVCAR-4 ovarian): 99.2 µM
- GI50 (SF-295 CNS): 98.4 µM
- TGI (SF-295 CNS): > 100 µM
- GI50 (SNB-19 CNS): > 100 µM
- TGI (SNB-19 CNS): > 100 µM

Structure (SMILES): O=C1c2cc(O)c(O)cc2O[C@H](c2ccc(O)c(O)c2)[C@H]1O
- TGI (HCT-116 colon): > 100 µM
- TGI (HL-60(TB) leukemia): > 100 µM
- TGI (KM12 colon): > 100 µM
- TGI (MDA-MB-435): > 100 µM
- TGI (MOLT-4 leukemia): > 100 µM
- TGI (OVCAR-3 ovarian): > 100 µM
- TGI (SF-295 CNS): > 100 µM
- TGI (SNB-19 CNS): > 100 µM
- TGI (SR leukemia): > 100 µM

Structure (SMILES): Cc1ccc(S(=O)(=O)N(CC(O)COc2ccccc2)c2c(F)cccc2F)cc1 (stereo unspecified)
- TGI (HL-60(TB) leukemia): 93.1 µM
- TGI (KM12 colon): 56.3 µM
- TGI (MDA-MB-435): 30.5 µM
- TGI (MOLT-4 leukemia): > 100 µM
- TGI (OVCAR-3 ovarian): 30.3 µM
- TGI (OVCAR-4 ovarian): 31.7 µM
- TGI (SF-295 CNS): 86 µM
- TGI (SNB-19 CNS): > 100 µM
- TGI (SR leukemia): 61.4 µM

Structure (SMILES): CCN(CC)CCNc1ccc2ncn3c4ccc(O)cc4c(=O)c1c23
- TGI (HCT-116 colon): 13 µM
- TGI (HL-60(TB) leukemia): 11.6 µM
- TGI (KM12 colon): 10.6 µM
- TGI (MDA-MB-435): 18.4 µM
- TGI (MOLT-4 leukemia): 3.59 µM
- TGI (OVCAR-3 ovarian): 13.6 µM
- TGI (OVCAR-4 ovarian): 9.81 µM
- TGI (SF-295 CNS): 15.1 µM
- TGI (SNB-19 CNS): 19.2 µM
- TGI (SR leukemia): 2.27 µM

Structure (SMILES): COc1ccc2nc3c(c(N)c2c1)C1CCC3C1(C)C (stereo unspecified)
- TGI (HCT-116 colon): > 100 µM
- TGI (HL-60(TB) leukemia): 68.6 µM
- TGI (KM12 colon): > 100 µM
- TGI (MDA-MB-435): > 100 µM
- TGI (MOLT-4 leukemia): > 100 µM
- TGI (OVCAR-3 ovarian): > 100 µM
- TGI (OVCAR-4 ovarian): > 100 µM
- TGI (SF-295 CNS): 69.7 µM
- TGI (SNB-19 CNS): > 100 µM
- TGI (SR leukemia): > 100 µM

Structure (SMILES): CSCCC(C(=O)O)N(C)C (stereo unspecified)
- TGI (HCT-116 colon): > 100 µM
- TGI (HL-60(TB) leukemia): > 100 µM
- TGI (KM12 colon): > 100 µM
- TGI (MDA-MB-435): > 100 µM
- TGI (OVCAR-3 ovarian): > 100 µM
- TGI (OVCAR-4 ovarian): > 100 µM
- TGI (SF-295 CNS): > 100 µM
- TGI (SNB-19 CNS): > 100 µM
- TGI (SR leukemia): > 100 µM

Structure (SMILES): O=c1[nH]c2[nH]c(=S)[nH]c(=S)c2[nH]1
- TGI (HCT-116 colon): > 100 µM
- TGI (HL-60(TB) leukemia): > 100 µM
- TGI (KM12 colon): > 100 µM
- TGI (MDA-MB-435): > 100 µM
- TGI (MOLT-4 leukemia): > 100 µM
- TGI (OVCAR-4 ovarian): > 100 µM
- TGI (SF-295 CNS): > 100 µM
- TGI (SNB-19 CNS): > 100 µM
- TGI (SR leukemia): > 100 µM

Structure (SMILES): CN1C(=O)CC(=O)N1/C(=C/c1ccccc1)c1ccccc1
- TGI (HCT-116 colon): > 100 µM
- TGI (KM12 colon): > 100 µM
- TGI (MDA-MB-435): > 100 µM
- TGI (MOLT-4 leukemia): 55.5 µM
- TGI (OVCAR-3 ovarian): > 100 µM
- TGI (OVCAR-4 ovarian): > 100 µM
- TGI (SF-295 CNS): > 100 µM
- TGI (SNB-19 CNS): > 100 µM
- TGI (SR leukemia): > 100 µM

Structure (SMILES): O=C(CSCC(=O)N/N=C/c1cccc(O)c1)N/N=C/c1cccc(O)c1
- TGI (HCT-116 colon): > 100 µM
- TGI (HL-60(TB) leukemia): > 100 µM
- TGI (KM12 colon): > 100 µM
- TGI (MDA-MB-435): > 100 µM
- TGI (MOLT-4 leukemia): > 100 µM
- TGI (OVCAR-3 ovarian): > 100 µM
- TGI (OVCAR-4 ovarian): > 100 µM
- TGI (SF-295 CNS): > 100 µM
- TGI (SNB-19 CNS): > 100 µM
- TGI (SR leukemia): > 100 µM

Structure (SMILES): Cc1ccc(S(=O)(=O)OC2CC(C(C)(C)C)CCC2c2ccccc2)cc1 (stereo unspecified)
- TGI (HCT-116 colon): > 100 µM
- TGI (HL-60(TB) leukemia): > 100 µM
- TGI (KM12 colon): > 100 µM
- TGI (MDA-MB-435): > 100 µM
- TGI (MOLT-4 leukemia): > 100 µM
- TGI (OVCAR-3 ovarian): > 100 µM
- TGI (OVCAR-4 ovarian): > 100 µM
- TGI (SF-295 CNS): > 100 µM
- TGI (SNB-19 CNS): > 100 µM
- TGI (SR leukemia): > 100 µM

Structure (SMILES): COc1ccc2nc3cc(Cl)ccc3c(NC(C)CCCN(CCCl)CCCl)c2c1 (stereo unspecified)
- TGI (HCT-116 colon): 1.5 µM
- TGI (HL-60(TB) leukemia): 0.94 µM
- TGI (KM12 colon): 4.6 µM
- TGI (MOLT-4 leukemia): 0.344 µM
- TGI (OVCAR-3 ovarian): 6.87 µM
- TGI (OVCAR-4 ovarian): 4.33 µM
- TGI (SF-295 CNS): 10.6 µM
- TGI (SNB-19 CNS): 7.15 µM
- TGI (SR leukemia): 0.502 µM

Structure (SMILES): COc1ccc(OC)c2sc(N3C(=O)/C(=C/c4cccc(Oc5ccccc5)c4)N=C3c3ccccc3)nc12
- TGI (HCT-116 colon): > 100 µM
- TGI (HL-60(TB) leukemia): > 100 µM
- TGI (KM12 colon): > 100 µM
- TGI (MDA-MB-435): > 100 µM
- TGI (MOLT-4 leukemia): > 100 µM
- TGI (OVCAR-3 ovarian): > 100 µM
- TGI (OVCAR-4 ovarian): > 100 µM
- TGI (SF-295 CNS): > 100 µM
- TGI (SNB-19 CNS): > 100 µM
